Results published in PMC6273235, “Phenolic Constituents of Medicinal Plants with Activity against Trypanosoma brucei” (Molecules, 2016).
Read-outs that look alike come from different tables or passages of the source.

Columns and labels:
[1] = Cytotoxicity assay (resazurin, 3 days), HEK293T; format: cell-based, human; details: human
Method: (§1) HEK293T and HepG2 cells were cultured at 37 °C with 5% CO2 in Dulbecco’s modified eagle medium containing 10% FBS. Both cell lines were plated individually in 384 well plates (4000 cells per well) and the natural compounds (two fold 10 points serial dilution starting from 5 ppm) were added for 3 days of incubation.

[2] = test system: HEK293T cells; experiment: Cytotoxicity assay (resazurin, 3 days), HEK293T; format: cell-based, human; details: for s.i (selectivity index) HEK239T: CC50 (HEK293T)/IC50 (T. brucei)
Method: as §1

[3] = test system: Trypanosoma; parameters: method as in PMID 16569852, PMID 20004045; details: cited from earlier work
[4] = test system: T. b. brucei strain 427 (bloodstream forms); experiment: Anti-trypanosomal activity on T. brucei (resazurin growth inhibition, 3 days); format: cell-based, Trypanosoma brucei
Description: To identify inhibitors of T. brucei growth, we conducted a screening of a proprietary library consisting of 440 purified natural products isolated from medicinal plants at the CNU laboratories. […] Nevertheless, since, according to the 5th rule, natural products may also represent exceptions from the other rules, all compounds were submitted to antiparasitic screening performed at a single concentration of 5 ppm (µg/mL) of each purified natural product.
T. b. brucei strain 427 (bloodstream forms) were cultivated at 37 °C with 5% CO2 atmosphere in HMI-9 medium supplemented with 10% FBS. […] After the incubation, the parasites were exposed to 120 µM of resazurin sodium salt for 5 h. Then, the parasites were fixed with 4% PFA and the assay plates were read by Victor 3 (PerkinElmer, Waltham, MA, USA) at 530 nmEx/590 nmEm. Pentamidine was used as a reference drug and DMSO 0.5% was used as a drug-negative control.

[5] = Cytotoxicity assay (resazurin, 3 days), HepG2; format: cell-based, human; details: human
Method: as §1

[6] = test system: HepG2 cells; experiment: Cytotoxicity assay (resazurin, 3 days), HepG2; format: cell-based, human; details: for s.i (selectivity index) HepG2: CC50 (HepG2)/IC50 (T. brucei)
Method: as §1

[7] = Trypanosoma brucei, 72 h, T. b. brucei strain 427 bloodstream forms, 3 days, mean ± SD, read-out: T. brucei IC50
[8] = Trypanosoma brucei, -log IC50 [M], experimental, read-out: pIC50 Tbr(exp) (converted)
[9] = T. b. brucei strain 427 bloodstream forms, 3 days, mean ± SD, read-out: T. brucei IC50
[10] = HEK293T cells, 3 days, > = highest concentration tested (5 ppm), read-out: Cytotoxicity CC50 Values HEK239T

Row | Compound | CC50 at 3 days [1] [µM] | s.i (selectivity index) HEK239T [2] | anti-trypanosomal activity previously reported [3] | IC50 [4, 7] [M] | IC50 [4, 8] [M] | CC50 at 3 days [5] [µM] | s.i (selectivity index) HepG2 [6] | IC50 [4, 9] [M] | CC50 at 3 days [1, 10] [µM] | IC50 ([4]; Trypanosoma brucei, 72 h, read-out: T. brucei IC50) [M] | IC50 ([4]; Trypanosoma brucei, read-out: pIC50 Tbr(exp) (converted)) [M] | CC50 at 3 days ([5]; HepG2 cells, 3 days, > = highest concentration tested (5 ppm), read-out: Cytotoxicity CC50 Values HepG2) [µM] | CC50 [2, 10] [µM] | pIC50 Tbr(exp) ([4]; -log IC50 [M], experimental) | CC50 ([6]; HepG2 cells, 3 days, > = highest concentration tested (5 ppm)) [µM]
1 | O=C(/C=C/c1ccc(O)cc1)CC(=O)/C=C/c1ccc(O)cc1 [Compound 1, bisdemethoxycurcumin] | > 32.5 | >3.30 | anti-trypanosomal activity | 9.84e-06 ± 8.4e-07 | 9.84e-06 | > 32.5 | >3.30 |  |  |  |  |  |  |  | 
2 | CC(C)=CCc1cc(C(=O)/C=C/c2ccc(O)c(O)c2)c(O)cc1O [Compound 4, broussochalcone A] | > 28.8 | >13.28 |  |  | 2.17e-06 | > 29.2 |  |  |  |  |  |  |  |  | 
3 | COc1cc(O)ccc1C(=O)/C=C/c1ccc(O)cc1 [Compound 5, 3-deoxysappanchalcone] | > 30.2 | >2.91 |  | > 1e-05 | 1.04e-05 | > 37.1 | >3.58 | 1.04e-05 ± 3.36e-06 |  |  |  |  |  |  | 
4 | CC(C)=CCC/C(C)=C/Cc1c(O)ccc(C(=O)/C=C/c2ccc(O)cc2)c1O [Compound 6, xanthoangelol] | > 25.4 | >3.43 |  | 7.42e-06 ± 1.12e-06 | 7.41e-06 | > 25.4 | >3.43 |  |  |  |  |  |  |  | 
5 | COc1cc(CC/C=C/C(=O)CCc2ccccc2)ccc1O [Compound 7, 7-(4″-hydroxy-3″-methoxyphenyl)-1-phenylhept-4-en-3-one] | > 32.4 | >13.05 |  |  | 2.48e-06 | > 32.4 | >13.05 |  |  |  |  |  |  |  | 
6 | COc1cc(C=CC=O)ccc1O [Compound 8, 4-hydroxy-3-methoxycinnamaldehyde] | > 48.1 | >2.93 |  | > 1e-05 | 1.64e-05 | > 57 | >3.47 | 1.64e-05 ± 2.78e-06 |  |  |  |  |  |  | 
7 | C=CCc1ccc(Oc2cc(/C=C/C=O)cc(O)c2O)cc1 [Compound 9, obovatal] | > 33.8 | >3.42 |  | 9.89e-06 ± 5.1e-07 | 9.89e-06 | > 33.8 | >3.42 |  |  |  |  |  |  |  | 
8 | C=CCc1ccc(O)c(-c2ccc(O)c(CC=C)c2)c1 [Compound 10, honokiol] | > 37.6 | >4.29 |  | 8.76e-06 ± 3.8e-07 | 8.77e-06 | > 37.6 | >4.29 |  |  |  |  |  |  |  | 
9 | C=C[C@H](OC(C)=O)c1ccc(OC(C)=O)cc1 [Compound 11, 1′S-1′-acetoxychavicol acetate] | > 23.2 | >4.94 |  | < 5e-06 | 4.7e-06 | > 30 | >6.38 | 4.7e-06 ± 1.53e-06 |  |  |  |  |  |  | 
10 | COc1ccc([C@H](O)[C@@H](C)Oc2ccc([C@H]3O[C@H](c4ccc5c(c4)OCO5)[C@H](C)[C@H]3C)cc2OC)cc1OC [Compound 12, saucerneol D] | > 16.2 | >2.89 |  | 5.61e-06 ± 9e-08 | 5.61e-06 | > 18.6 | >3.32 |  |  |  |  |  |  |  | 
11 | COc1ccc([C@@H](O)[C@@H](C)Oc2ccc([C@H]3O[C@H](c4ccc(O[C@H](C)[C@H](O)c5ccc(OC)c(OC)c5)c(OC)c4)[C@H](C)[C@H]3C)cc2OC)cc1OC [Compound 13, manassantin A] |  |  |  |  |  |  |  |  | > 11.8 | 5.43e-06 ± 2.6e-07 | 5.43e-06 | > 13.7 |  |  | 
12 | COc1ccc([C@@H](O)[C@@H](C)Oc2ccc([C@H]3O[C@H](c4ccc(O[C@H](C)[C@H](O)c5ccc6c(c5)OCO6)c(OC)c4)[C@H](C)[C@H]3C)cc2OC)cc1OC [Compound 14, manassantin B] | > 11 | >3.12 |  | < 5e-06 | 3.54e-06 | > 13.9 | >3.93 | 3.54e-06 ± 4.9e-07 |  |  |  |  |  |  | 
13 | C=C(C)[C@H](CC=C(C)C)Cc1c(O)cc(O)c2c1O[C@H](c1ccc(O)cc1O)CC2=O [Compound 15, kushenol F] | > 23.8 | >17.34 |  |  | 1.37e-06 | > 23.8 | >17.34 |  |  |  |  |  |  |  | 
14 | O=c1cc(-c2ccc(O)cc2)oc2cc(O)cc(O)c12 [Compound 16, apigenin] | > 37 | >3.38 | anti-trypanosomal activity | > 1e-05 | 1.1e-05 | > 37 | >3.38 | 1.1e-05 ± 2.64e-06 |  |  |  |  |  |  | 
15 | COc1ccc(-c2cc(=O)c3c(O)c(OC)c(O)cc3o2)cc1OC [Compound 17, eupatilin] | > 29.1 | >3.58 |  | 8.14e-06 ± 1.37e-06 | 8.15e-06 | > 29.1 | >3.58 |  |  |  |  |  |  |  | 
16 | CC(C)=CCc1c(-c2ccc(O)cc2O)oc2c3c(cc(O)c2c1=O)OC(C)(C)C=C3 [Compound 18, morusin] | > 23.7 | >6.98 |  | < 5e-06 | 3.4e-06 | > 23.7 | >6.98 | 3.4e-06 ± 1.5e-07 |  |  |  |  |  |  | 
17 | O=C1c2ccc(O)cc2OC[C@H]1Cc1ccc(O)c(O)c1 [Compound 19, 3-deoxysappanone B] | > 35 | >6.04 |  | 5.8e-06 ± 7e-08 | 5.79e-06 | > 35 | >6.04 |  |  |  |  |  |  |  | 
18 | CC(C)=CCc1c(O)c(CC=C(C)C)c2occ(-c3ccc(O)c(O)c3)c(=O)c2c1O [Compound 20, 6,8-diprenylorobol] | > 24.1 | >46.34 |  |  | 5.2e-07 | > 24.1 | >46.34 |  |  |  |  |  |  |  | 
19 | O=c1c(-c2ccc(O)cc2)coc2cc(O[C@@H]3O[C@H](CO)[C@@H](O)[C@H](O)[C@H]3O)cc(O)c12 [Compound 21, genistin] | > 23.1 | >6.99 |  | < 5e-06 | 3.31e-06 | > 23.1 | >6.99 | 3.31e-06 ± 7.5e-07 |  |  |  |  |  |  | 
20 | O=c1c(-c2ccc(O[C@@H]3O[C@H](CO)[C@@H](O)[C@H](O)[C@H]3O)cc2)coc2cc(O)cc(O)c12 [Compound 22, sophoricoside] | > 23.1 | >3.56 |  | 6.5e-06 ± 5.2e-07 | 6.5e-06 | > 23.1 | >3.56 |  |  |  |  |  |  |  | 
21 | N=C(N)c1ccc(OCCCCCOc2ccc(C(=N)N)cc2)cc1 [Pentamidine, reference compound] |  | <26.7 |  | 4e-09 ± 3e-09 |  |  |  |  |  |  |  |  |  |  | 
22 | demethoxycurcumin [Compound 2] |  |  | anti-trypanosomal activity |  |  |  |  | 7.19e-06 ± 1.02e-06 |  |  |  |  | > 21.4 | 5.143 | > 29.6
